# Experimental data from article PMC5513037, “Examining the influence of specificity ligands and ATP-competitive ligands on the overall effectiveness of bivalent kinase inhibitors” (Proteome Science, 2017).
# pIC50: −log10 of the molar value.
# What was measured:
# Test in all cases: KAM-matrix competition in K562 lysate;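 on 0.001 uM KAM: median log10 fold change of treatment over DMSO control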;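 on 0.01 uM KAM: median log10 fold change of treatment over DMSO control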;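 on 0.1 uM KAM: median log10 fold change of treatment over DMSO control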;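 on 1 uM KAM: median log10 fold change of treatment over DMSO control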;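 on 10 uM KAM: median log10 fold change of treatment over DMSO control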
# Format in all cases: binding
# EEF2K = biological target: T1, EEF2K (Homo sapiens, UniProt O00418);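 on 0.001 uM KAM: median log10 fold change of treatment over DMSO control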;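 on 0.01 uM KAM: median log10 fold change of treatment over DMSO control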;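 on 0.1 uM KAM: median log10 fold change of treatment over DMSO control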;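 on 1 uM KAM: median log10 fold change of treatment over DMSO control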;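 on 10 uM KAM: median log10 fold change of treatment over DMSO control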
# T1 construct: endogenous in cells; host or cells: K562 lysate
# T1 sequence (O00418 1-725): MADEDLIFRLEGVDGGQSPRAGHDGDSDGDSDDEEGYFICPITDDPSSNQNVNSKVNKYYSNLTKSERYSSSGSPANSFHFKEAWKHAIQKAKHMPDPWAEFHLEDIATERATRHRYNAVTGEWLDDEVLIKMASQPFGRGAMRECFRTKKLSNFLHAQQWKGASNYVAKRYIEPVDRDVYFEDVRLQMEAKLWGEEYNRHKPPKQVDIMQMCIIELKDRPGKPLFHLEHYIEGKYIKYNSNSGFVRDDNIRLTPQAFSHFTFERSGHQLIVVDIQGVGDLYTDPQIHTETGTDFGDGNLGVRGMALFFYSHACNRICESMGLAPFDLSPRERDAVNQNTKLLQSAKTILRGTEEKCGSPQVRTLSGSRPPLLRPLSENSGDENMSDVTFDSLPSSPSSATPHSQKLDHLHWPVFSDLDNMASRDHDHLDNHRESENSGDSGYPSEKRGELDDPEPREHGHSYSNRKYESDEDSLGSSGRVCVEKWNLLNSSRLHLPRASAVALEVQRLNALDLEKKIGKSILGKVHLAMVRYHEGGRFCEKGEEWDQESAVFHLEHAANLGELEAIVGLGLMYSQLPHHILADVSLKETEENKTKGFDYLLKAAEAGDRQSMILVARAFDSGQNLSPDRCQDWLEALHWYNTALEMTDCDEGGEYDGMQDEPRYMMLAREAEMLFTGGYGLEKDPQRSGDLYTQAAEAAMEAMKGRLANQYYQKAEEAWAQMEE
# Experimental: (§1) Supplement 12953_2017_125_MOESM1_ESM.zip/MS_Supp Info.xlsx, sheet "KAM" | column: 10 uM KAM; 1 uM KAM; 0.1 uM KAM; 0.01 uM KAM; 0.001 uM KAM; RB50
# PHKG1 = biological target: T2, PHKG1 (Homo sapiens, UniProt Q16816)
# T2 construct: endogenous in cells; host or cells: K562
# Experimental: as §1
# PAK4 = biological target: T3, PAK4 (Homo sapiens, UniProt O96013)
# T3 construct: endogenous in cells; host or cells: K562
# Experimental: as §1
# LYN = biological target: T4, LYN (Homo sapiens, UniProt P07948)
# T4 construct: endogenous in cells; host or cells: K562
# Experimental: as §1
# PRKCQ = biological target: T5, PRKCQ (Homo sapiens, UniProt Q04759)
# T5 construct: endogenous in cells; host or cells: K562
# Experimental: as §1
# STK25 = biological target: T6, STK25 (Homo sapiens, UniProt O00506);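 on 0.001 uM KAM: median log10 fold change of treatment over DMSO control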;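 on 0.01 uM KAM: median log10 fold change of treatment over DMSO control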;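 on 0.1 uM KAM: median log10 fold change of treatment over DMSO control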;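 on 1 uM KAM: median log10 fold change of treatment over DMSO control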;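 on 10 uM KAM: median log10 fold change of treatment over DMSO control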
# T6 construct: endogenous in cells; host or cells: K562 cell lysate
# Experimental: as §1
# AURKC = biological target: T7, AURKC (Homo sapiens, UniProt Q9UQB9)
# T7 construct: endogenous in cells; host or cells: K562
# T7 sequence (Q9UQB9 1-309): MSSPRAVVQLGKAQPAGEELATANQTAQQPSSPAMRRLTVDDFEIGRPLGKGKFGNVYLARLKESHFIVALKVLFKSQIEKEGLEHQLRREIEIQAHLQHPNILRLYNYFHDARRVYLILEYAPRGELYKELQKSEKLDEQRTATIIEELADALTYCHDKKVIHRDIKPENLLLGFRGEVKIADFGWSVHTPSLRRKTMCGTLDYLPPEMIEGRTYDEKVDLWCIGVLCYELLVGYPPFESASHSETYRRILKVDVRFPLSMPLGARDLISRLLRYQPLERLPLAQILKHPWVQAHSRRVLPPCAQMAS
# Experimental: as §1
# CDK17 = biological target: T8, CDK17 (Homo sapiens, UniProt Q00537);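 on 0.001 uM KAM: median log10 fold change of treatment over DMSO control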;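 on 0.01 uM KAM: median log10 fold change of treatment over DMSO control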;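 on 0.1 uM KAM: median log10 fold change of treatment over DMSO control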;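 on 1 uM KAM: median log10 fold change of treatment over DMSO control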;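 on 10 uM KAM: median log10 fold change of treatment over DMSO control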
# T8 construct: endogenous in cells; host or cells: K562 cell lysate
# Experimental: as §1
# SPEG = biological target: T9, SPEG (Homo sapiens, UniProt Q15772);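 on 0.001 uM KAM: median log10 fold change of treatment over DMSO control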;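 on 0.01 uM KAM: median log10 fold change of treatment over DMSO control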;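 on 0.1 uM KAM: median log10 fold change of treatment over DMSO control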;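 on 1 uM KAM: median log10 fold change of treatment over DMSO control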;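 on 10 uM KAM: median log10 fold change of treatment over DMSO control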
# T9 construct: endogenous in cells; host or cells: K562
# Experimental: as §1
# MAPK7 = biological target: T10, MAPK7 (Homo sapiens, UniProt Q13164);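 on 0.001 uM KAM: median log10 fold change of treatment over DMSO control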;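 on 0.01 uM KAM: median log10 fold change of treatment over DMSO control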;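 on 0.1 uM KAM: median log10 fold change of treatment over DMSO control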;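 on 1 uM KAM: median log10 fold change of treatment over DMSO control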;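 on 10 uM KAM: median log10 fold change of treatment over DMSO control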
# T10 construct: endogenous in cells; host or cells: K562
# Experimental: as §1
# DAPK1 = biological target: T11, DAPK1 (Homo sapiens, UniProt P53355);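 on 0.001 uM KAM: median log10 fold change of treatment over DMSO control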;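 on 0.01 uM KAM: median log10 fold change of treatment over DMSO control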;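 on 0.1 uM KAM: median log10 fold change of treatment over DMSO control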;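 on 1 uM KAM: median log10 fold change of treatment over DMSO control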;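 on 10 uM KAM: median log10 fold change of treatment over DMSO control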
# T11 construct: endogenous in cells; host or cells: K562
# Experimental: as §1
# MAPK3 = biological target: T12, MAPK3 (Homo sapiens, UniProt P27361)
# T12 construct: endogenous in cells; host or cells: K562
# Experimental: as §1
# [1] = KAM 0.001-10 uM, read-out: RB50 (the source's name)
# [2] = read-out: RB50 (the source's name)
# T4 sequence (P07948 whole entry): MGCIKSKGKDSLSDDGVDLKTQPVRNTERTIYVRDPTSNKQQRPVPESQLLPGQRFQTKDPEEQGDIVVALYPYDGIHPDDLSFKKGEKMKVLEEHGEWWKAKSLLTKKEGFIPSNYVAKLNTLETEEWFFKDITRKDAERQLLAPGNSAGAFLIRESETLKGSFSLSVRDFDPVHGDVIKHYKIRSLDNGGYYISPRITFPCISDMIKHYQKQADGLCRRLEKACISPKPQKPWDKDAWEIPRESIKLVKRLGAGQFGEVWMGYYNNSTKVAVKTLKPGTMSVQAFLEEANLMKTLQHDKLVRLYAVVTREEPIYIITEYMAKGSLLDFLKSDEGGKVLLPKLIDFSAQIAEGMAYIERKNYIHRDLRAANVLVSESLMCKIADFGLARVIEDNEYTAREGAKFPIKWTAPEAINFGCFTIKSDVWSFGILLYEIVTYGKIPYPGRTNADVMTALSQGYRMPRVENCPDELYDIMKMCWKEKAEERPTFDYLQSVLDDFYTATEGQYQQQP
# T10 sequence (Q13164 whole entry): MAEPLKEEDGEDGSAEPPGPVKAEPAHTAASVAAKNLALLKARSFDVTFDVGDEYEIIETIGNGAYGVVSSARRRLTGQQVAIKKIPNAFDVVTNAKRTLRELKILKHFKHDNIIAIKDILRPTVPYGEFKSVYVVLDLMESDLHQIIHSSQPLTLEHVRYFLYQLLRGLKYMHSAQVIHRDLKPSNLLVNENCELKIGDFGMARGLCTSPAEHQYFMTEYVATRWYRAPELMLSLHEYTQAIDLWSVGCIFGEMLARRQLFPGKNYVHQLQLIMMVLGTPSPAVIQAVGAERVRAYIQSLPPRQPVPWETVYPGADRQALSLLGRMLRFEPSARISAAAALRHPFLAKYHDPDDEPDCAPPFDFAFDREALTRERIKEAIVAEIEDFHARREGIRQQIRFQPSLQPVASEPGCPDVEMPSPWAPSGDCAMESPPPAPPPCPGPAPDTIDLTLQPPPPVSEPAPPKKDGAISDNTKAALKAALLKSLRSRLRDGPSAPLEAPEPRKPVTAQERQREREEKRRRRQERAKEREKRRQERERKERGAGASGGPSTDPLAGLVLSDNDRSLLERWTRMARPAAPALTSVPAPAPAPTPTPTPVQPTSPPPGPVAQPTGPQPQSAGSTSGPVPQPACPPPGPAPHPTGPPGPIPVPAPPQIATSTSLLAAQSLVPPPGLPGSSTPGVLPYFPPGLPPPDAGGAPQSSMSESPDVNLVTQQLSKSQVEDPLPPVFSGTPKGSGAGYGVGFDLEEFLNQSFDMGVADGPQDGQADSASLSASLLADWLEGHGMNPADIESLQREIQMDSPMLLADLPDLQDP
# T2 sequence (Q16816 whole entry): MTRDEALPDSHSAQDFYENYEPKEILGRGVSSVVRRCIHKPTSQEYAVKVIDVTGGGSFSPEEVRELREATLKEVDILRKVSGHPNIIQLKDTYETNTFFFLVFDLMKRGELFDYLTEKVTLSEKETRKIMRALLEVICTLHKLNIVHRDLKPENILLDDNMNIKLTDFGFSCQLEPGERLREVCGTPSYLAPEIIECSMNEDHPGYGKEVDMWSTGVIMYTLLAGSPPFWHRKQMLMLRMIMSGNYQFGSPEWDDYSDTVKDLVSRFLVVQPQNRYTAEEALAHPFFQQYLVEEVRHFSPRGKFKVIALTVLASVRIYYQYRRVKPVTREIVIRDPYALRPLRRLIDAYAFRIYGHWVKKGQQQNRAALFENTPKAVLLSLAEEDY
# T9 sequence (Q15772 whole entry): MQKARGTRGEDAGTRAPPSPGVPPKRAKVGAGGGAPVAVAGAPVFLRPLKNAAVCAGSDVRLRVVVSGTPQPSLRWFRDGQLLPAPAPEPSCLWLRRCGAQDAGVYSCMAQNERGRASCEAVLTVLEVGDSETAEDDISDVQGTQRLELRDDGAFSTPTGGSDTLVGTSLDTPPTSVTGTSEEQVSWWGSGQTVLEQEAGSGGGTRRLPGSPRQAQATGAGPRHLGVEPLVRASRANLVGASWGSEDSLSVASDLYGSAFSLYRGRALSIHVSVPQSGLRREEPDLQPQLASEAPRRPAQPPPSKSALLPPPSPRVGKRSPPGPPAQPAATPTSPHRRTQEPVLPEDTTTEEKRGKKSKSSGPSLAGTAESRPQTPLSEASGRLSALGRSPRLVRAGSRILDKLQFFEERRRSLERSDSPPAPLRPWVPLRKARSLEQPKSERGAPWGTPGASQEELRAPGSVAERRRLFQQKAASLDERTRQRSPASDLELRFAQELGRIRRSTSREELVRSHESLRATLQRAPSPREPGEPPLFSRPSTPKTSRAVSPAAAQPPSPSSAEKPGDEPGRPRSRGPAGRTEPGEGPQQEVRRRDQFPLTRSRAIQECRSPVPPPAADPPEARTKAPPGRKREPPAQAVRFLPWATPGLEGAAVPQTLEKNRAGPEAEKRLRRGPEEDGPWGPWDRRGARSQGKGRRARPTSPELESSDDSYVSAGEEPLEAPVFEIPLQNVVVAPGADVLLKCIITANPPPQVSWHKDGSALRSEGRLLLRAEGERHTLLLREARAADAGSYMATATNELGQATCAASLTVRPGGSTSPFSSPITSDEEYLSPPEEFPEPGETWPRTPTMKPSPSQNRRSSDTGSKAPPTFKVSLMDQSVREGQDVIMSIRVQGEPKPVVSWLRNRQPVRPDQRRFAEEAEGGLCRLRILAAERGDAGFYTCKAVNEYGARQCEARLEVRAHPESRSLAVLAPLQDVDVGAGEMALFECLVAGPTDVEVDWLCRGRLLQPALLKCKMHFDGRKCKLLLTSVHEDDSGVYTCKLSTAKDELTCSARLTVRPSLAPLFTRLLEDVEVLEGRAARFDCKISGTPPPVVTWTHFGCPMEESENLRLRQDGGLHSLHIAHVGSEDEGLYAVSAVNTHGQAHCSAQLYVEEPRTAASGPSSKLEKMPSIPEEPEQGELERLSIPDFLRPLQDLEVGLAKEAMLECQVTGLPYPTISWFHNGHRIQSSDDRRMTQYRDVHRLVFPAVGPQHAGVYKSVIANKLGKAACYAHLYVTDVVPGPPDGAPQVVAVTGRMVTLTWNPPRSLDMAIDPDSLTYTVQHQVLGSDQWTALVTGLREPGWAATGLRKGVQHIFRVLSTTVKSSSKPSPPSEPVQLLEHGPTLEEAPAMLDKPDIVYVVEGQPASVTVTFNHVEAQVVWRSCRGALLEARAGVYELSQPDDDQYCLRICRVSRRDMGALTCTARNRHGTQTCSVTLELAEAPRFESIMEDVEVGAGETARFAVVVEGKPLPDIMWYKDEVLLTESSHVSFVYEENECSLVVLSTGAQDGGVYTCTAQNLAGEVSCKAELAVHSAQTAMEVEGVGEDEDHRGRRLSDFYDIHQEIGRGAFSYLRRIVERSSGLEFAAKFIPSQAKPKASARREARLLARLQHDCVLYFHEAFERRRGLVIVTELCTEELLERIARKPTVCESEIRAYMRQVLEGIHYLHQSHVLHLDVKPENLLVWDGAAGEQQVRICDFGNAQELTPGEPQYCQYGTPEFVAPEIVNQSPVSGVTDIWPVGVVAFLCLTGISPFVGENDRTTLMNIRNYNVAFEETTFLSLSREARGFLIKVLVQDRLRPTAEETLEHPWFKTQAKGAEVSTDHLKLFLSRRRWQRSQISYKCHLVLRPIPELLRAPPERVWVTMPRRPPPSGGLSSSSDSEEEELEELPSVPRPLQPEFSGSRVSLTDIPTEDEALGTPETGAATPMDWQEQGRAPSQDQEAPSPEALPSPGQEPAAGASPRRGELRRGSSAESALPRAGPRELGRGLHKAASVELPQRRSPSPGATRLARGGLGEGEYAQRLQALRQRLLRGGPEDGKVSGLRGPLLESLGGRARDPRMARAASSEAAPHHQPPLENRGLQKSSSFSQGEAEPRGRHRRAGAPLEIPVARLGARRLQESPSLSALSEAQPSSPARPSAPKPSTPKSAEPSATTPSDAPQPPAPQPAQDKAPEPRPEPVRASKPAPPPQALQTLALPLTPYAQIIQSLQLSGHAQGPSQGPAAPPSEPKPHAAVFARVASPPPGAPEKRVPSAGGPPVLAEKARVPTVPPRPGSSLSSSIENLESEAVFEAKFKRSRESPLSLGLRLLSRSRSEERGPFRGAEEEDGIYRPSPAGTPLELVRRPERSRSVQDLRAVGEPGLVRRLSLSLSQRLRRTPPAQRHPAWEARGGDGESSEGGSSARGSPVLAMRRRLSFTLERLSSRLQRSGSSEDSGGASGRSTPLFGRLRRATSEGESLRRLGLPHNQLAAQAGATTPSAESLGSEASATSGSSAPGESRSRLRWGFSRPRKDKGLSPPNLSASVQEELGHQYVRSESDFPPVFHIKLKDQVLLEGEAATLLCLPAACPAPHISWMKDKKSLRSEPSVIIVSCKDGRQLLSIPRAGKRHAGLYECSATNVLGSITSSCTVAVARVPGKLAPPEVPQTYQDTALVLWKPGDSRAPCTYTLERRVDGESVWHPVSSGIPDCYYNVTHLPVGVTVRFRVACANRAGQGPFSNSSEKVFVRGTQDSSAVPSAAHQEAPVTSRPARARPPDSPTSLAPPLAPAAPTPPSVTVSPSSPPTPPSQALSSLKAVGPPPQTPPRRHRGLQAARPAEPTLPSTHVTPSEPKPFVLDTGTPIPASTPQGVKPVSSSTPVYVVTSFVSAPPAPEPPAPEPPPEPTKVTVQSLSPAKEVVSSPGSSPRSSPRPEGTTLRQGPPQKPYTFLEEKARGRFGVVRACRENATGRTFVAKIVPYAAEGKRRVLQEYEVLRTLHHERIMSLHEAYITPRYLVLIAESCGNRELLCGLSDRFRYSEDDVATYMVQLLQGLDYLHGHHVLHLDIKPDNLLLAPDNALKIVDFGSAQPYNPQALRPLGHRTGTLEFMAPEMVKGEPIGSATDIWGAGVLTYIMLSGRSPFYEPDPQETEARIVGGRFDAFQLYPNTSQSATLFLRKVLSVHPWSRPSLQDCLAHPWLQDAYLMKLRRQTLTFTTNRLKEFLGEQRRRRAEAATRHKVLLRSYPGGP
structure (smiles),measurement,setting,value
N#CCc1ccc(Nc2nc(NCCCN)cc(Nc3cc(C4CC4)[nH]n3)n2)cc1 [KAM],pIC50,EEF2K; [1],< 5.00
same,0.001 uM KAM,EEF2K; relative to 0 uM KAM = 0,0.04185
same,0.01 uM KAM,EEF2K; relative to 0 uM KAM = 0,0.02355
same,0.1 uM KAM,EEF2K; relative to 0 uM KAM = 0,0.1074
same,1 uM KAM,EEF2K; relative to 0 uM KAM = 0,0.1036
same,10 uM KAM,EEF2K; relative to 0 uM KAM = 0,0.09999
same,median Log10 fold change,PHKG1; 0.001 uM KAM,-0.0673
same,median Log10 fold change,PHKG1; 0.01 uM KAM,-0.04082
same,median Log10 fold change,PHKG1; 0.1 uM KAM,-0.2109
same,median Log10 fold change,PHKG1; 1 uM KAM,-0.4403
same,median Log10 fold change,PHKG1; 10 uM KAM,-0.5431
same,pIC50,PHKG1; [2],6.48
same,median Log10 fold change,PAK4; 0.001 uM KAM,-0.02305
same,median Log10 fold change,PAK4; 0.01 uM KAM,-0.006782
same,median Log10 fold change,PAK4; 0.1 uM KAM,-0.1812
same,median Log10 fold change,PAK4; 1 uM KAM,-0.403
same,median Log10 fold change,PAK4; 10 uM KAM,-0.4884
same,pIC50,PAK4; [2],6.28
same,median Log10 fold change,LYN; 0.001 uM KAM,-0.01474
same,median Log10 fold change,LYN; 0.01 uM KAM,-0.009336
same,median Log10 fold change,LYN; 0.1 uM KAM,-0.1214
same,median Log10 fold change,LYN; 1 uM KAM,-0.4299
same,median Log10 fold change,LYN; 10 uM KAM,-0.513
same,pIC50,LYN; [2],6.22
same,median Log10 fold change,PRKCQ; 0.001 uM KAM,-0.05924
same,median Log10 fold change,PRKCQ; 0.01 uM KAM,-0.02167
same,median Log10 fold change,PRKCQ; 0.1 uM KAM,-0.1204
same,median Log10 fold change,PRKCQ; 1 uM KAM,-0.1965
same,median Log10 fold change,PRKCQ; 10 uM KAM,-0.3734
same,pIC50,PRKCQ; [2],5.44
same,pIC50,STK25; [1],< 5.00
same,0.001 uM KAM,STK25; relative to 0 uM KAM = 0,-0.05569
same,0.01 uM KAM,STK25; relative to 0 uM KAM = 0,-0.0234
same,0.1 uM KAM,STK25; relative to 0 uM KAM = 0,-0.1788
same,1 uM KAM,STK25; relative to 0 uM KAM = 0,-0.2616
same,10 uM KAM,STK25; relative to 0 uM KAM = 0,-0.2742
same,median Log10 fold change,AURKC; 0.001 uM KAM,0.0006126
same,median Log10 fold change,AURKC; 0.01 uM KAM,-0.1035
same,median Log10 fold change,AURKC; 0.1 uM KAM,-0.4123
same,median Log10 fold change,AURKC; 1 uM KAM,-0.4901
same,median Log10 fold change,AURKC; 10 uM KAM,-0.3419
same,pIC50,AURKC; [2],7.12
same,pIC50,CDK17; [1],< 5.00
same,0.001 uM KAM,CDK17; relative to 0 uM KAM = 0,-0.02399
same,0.01 uM KAM,CDK17; relative to 0 uM KAM = 0,-0.01557
same,0.1 uM KAM,CDK17; relative to 0 uM KAM = 0,-0.06864
same,1 uM KAM,CDK17; relative to 0 uM KAM = 0,-0.1892
same,10 uM KAM,CDK17; relative to 0 uM KAM = 0,-0.2802
same,pIC50,SPEG; [1],< 5.00
same,0.001 uM KAM,SPEG; relative to 0 uM KAM = 0,-0.04699
same,0.01 uM KAM,SPEG; relative to 0 uM KAM = 0,0.03576
same,0.1 uM KAM,SPEG; relative to 0 uM KAM = 0,-0.007872
same,1 uM KAM,SPEG; relative to 0 uM KAM = 0,0.04064
same,10 uM KAM,SPEG; relative to 0 uM KAM = 0,0.01523
same,pIC50,MAPK7; [1],< 5.00
same,0.001 uM KAM,MAPK7; relative to 0 uM KAM = 0,-0.02869
same,0.01 uM KAM,MAPK7; relative to 0 uM KAM = 0,0.01229
same,0.1 uM KAM,MAPK7; relative to 0 uM KAM = 0,-0.142
same,1 uM KAM,MAPK7; relative to 0 uM KAM = 0,-0.1326
same,10 uM KAM,MAPK7; relative to 0 uM KAM = 0,-0.1898
same,pIC50,DAPK1; [1],< 5.00
same,0.001 uM KAM,DAPK1; relative to 0 uM KAM = 0,-0.04615
same,0.01 uM KAM,DAPK1; relative to 0 uM KAM = 0,0.02037
same,0.1 uM KAM,DAPK1; relative to 0 uM KAM = 0,-0.07451
same,1 uM KAM,DAPK1; relative to 0 uM KAM = 0,-0.06277
same,10 uM KAM,DAPK1; relative to 0 uM KAM = 0,-0.09328
same,median Log10 fold change,MAPK3; 0.001 uM KAM,-0.06334
same,median Log10 fold change,MAPK3; 0.01 uM KAM,-0.0563
same,median Log10 fold change,MAPK3; 0.1 uM KAM,-0.1467
same,median Log10 fold change,MAPK3; 1 uM KAM,-0.2435
same,median Log10 fold change,MAPK3; 10 uM KAM,-0.361
same,pIC50,MAPK3; [2],5.63
